Reference: patent publication US8604040B2 (priority 2010, dated 2013)
Where two headings read alike, the source gives them in different places. Marks after values point to notes of the source that are not given here.

Legend:
[1] = log P by HPLC (EEC Directive 79/831 Annex V.A8); assay type: physicochemical
[2] = test system: Plasmopara viticola; experiment: Plasmopara test (grapevine) / protective; assay type: in vivo; details: young grapevine plants, active ingredient concentration 100 ppm, evaluation 6 days after inoculation
Protocol: Plasmopara Test (Grapevine)/Protective
Solvent: 24.5 parts by weight of acetone
• 24.5 parts by weight of dimethylacetamide Emulsifier: 1 part by weight of alkylaryl polyglycol ether
To prepare an appropriate active ingredient preparation, 1 part by weight of active ingredient is mixed with the stated amounts of solvent and emulsifier, and the concentrate is diluted with water to the desired concentration.
To test for protective efficacy, young plants are sprayed with the active ingredient preparation at the stated application rate. After the spray coating has dried on, the plants are inoculated with an aqueous spore suspension of Plasmopara viticola and then remain in an incubation cabin at approx. 20° C. and 100% relative atmospheric humidity for 1 day. Subsequently, the plants are placed in a greenhouse at approx. 21° C. and approx. 90% air humidity for 4 days. The plants are then moistened and placed into an incubation cabin for 1 day.
Evaluation follows 6 days after the inoculation. 0% means an efficacy which corresponds to that of the control, whereas an efficacy of 100% means that no infection is observed.

[3] = test system: Phytophthora infestans; assay type: in vivo; details: protective, young tomato plants, active ingredient concentration 500 ppm, evaluation 7 days after inoculation
[4] = [a] HPLC, acidic range, pH 2.3, 0.1% aqueous phosphoric acid and acetonitrile
[5] = [c] LC-MS, neutral range, pH 7.8, 0.001 molar aqueous ammonium hydrogencarbonate and acetonitrile
[6] = [b] LC-MS, acidic range, pH 2.7, 0.1% aqueous formic acid and acetonitrile

Structure (SMILES)	chromatographic logP ([1]; HPLC (LC-MS), [c] LC-MS, neutral range, pH 7.8, 0.001 molar aqueous ammonium hydrogencarbonate and acetonitrile, read-out: log P)	chromatographic logP ([1]; HPLC, pH 2.7, given in the preparation examples, read-out: logP (pH2.7))	chromatographic logP ([1]; [a] HPLC, acidic range, pH 2.3, 0.1% aqueous phosphoric acid and acetonitrile, read-out: log P)	efficacy [2]	efficacy [3]	log P [1, 4]	log P [1, 5]	log P [1, 6]
O=C(OC1CCCc2ccccc21)c1cccc(N2CCN(C(=O)Cn3nc(C(F)F)cc3C(F)F)CC2)n1 (stereo not drawn) [Example 117, 1,2,3,4-Tetrahydronaphthalen-1-yl 6-(4-{[3,5-bis(difluoromethyl)-1H-pyrazol-1-yl]-acetyl}piperazin-1-yl)pyridine-2-carboxylate]	4.07	4.02	4.02	93%	93%			
O=C(OCc1c(F)cccc1F)c1cccc(N2CCN(C(=O)Cn3nc(C(F)F)cc3C(F)F)CC2)n1 [Example 138]					93%	3.43^[a]; 3.43^[c]	3.43^[a]; 3.43^[c]	
CN(C(=O)c1cccc(N2CCN(C(=O)Cn3nc(C(F)F)cc3C(F)F)CC2)n1)C1CCCc2ccccc21 (stereo not drawn) [Example 143]					71%	3.42	3.45	
Cc1cc(C(F)(F)F)nn1CC(=O)N1CCN(c2cccc(C(=O)OC3C=CCCC3)n2)CC1 (stereo not drawn) [Example 68]					94%		3.7	3.67
O=C(OC1CCCCC1)c1cccc(N2CCN(C(=O)Cn3nc(C(F)F)cc3C(F)F)CC2)n1 [Example 140]				71%	93%	3.83	3.86	
C=CCCCCOC(=O)c1cccc(N2CCN(C(=O)Cn3nc(C(F)(F)F)cc3C)CC2)n1 [Example 71]					76%		3.95	
O=C(Oc1cccc2ccccc12)c1cccc(N2CCN(C(=O)Cn3nc(C(F)F)cc3C(F)F)CC2)n1 [Example 141]					71%		3.88^[c]	
O=C(Sc1cccs1)c1cccc(C2CCN(C(=O)Cn3nc(C(F)F)cc3C(F)F)CC2)n1 [Example 123]					93%	3.76	3.77	
O=C(OC1C=CCCC1)c1cccc(N2CCN(C(=O)Cn3nc(C(F)F)cc3C(F)F)CC2)n1 (stereo not drawn) [Example 142]					83%	3.56	3.6	
Cc1cc(C(F)(F)F)nn1CC(=O)N1CCN(c2cccc(C(=O)Oc3cccc4ccccc34)n2)CC1 [Example 75]					71%		4	3.99
Cc1cc(C(F)(F)F)nn1CC(=O)N1CCN(c2cccc(C(=O)N(C)Cc3ccccc3Br)n2)CC1 [Example 3]					88%		3.46	3.44
O=C(OCc1ccccc1F)c1cccc(N2CCN(C(=O)Cn3nc(C(F)F)cc3C(F)F)CC2)n1 [Example 137]					93%	3.47	3.49	
Cc1cc(C(F)(F)F)nn1CC(=O)N1CCN(c2cccc(C(=O)OC3CCCCC3)n2)CC1 [Example 69]					71%			3.96
Cc1cc(C(F)(F)F)nn1CC(=O)N1CCN(c2cccc(C(=O)OC3CCCc4ccccc43)n2)CC1 (stereo not drawn) [Example 70]					97%		4.2	4.19
